Results from patent US12545673B2, “Imidazopyridine derivative and pharmaceutical composition comprising same as active ingredient” (TSD LIFE SCIENCES CO., LTD., priority 2019, dated 2026).

Experiments:
[1] = target: MLK3 (Homo sapiens (Human), UniProt Q16584); assay: Evaluation of inhibitory activity of enzyme units, MLK3 ([γ-33P]-ATP filter assay); conditions: read-out: IC50(nM) MLK3
[2] = test system: acute myeloid leukemia cell line U937; assay: Cancer cell proliferation inhibitory activity evaluation 2 (CCK-8), U937; format: cell-based; conditions: Homo sapiens, U-937; 10 μM, 72 hours, CCK-8 (Table 3); read-out: Cancer cell proliferation inhibitory activity U937
Experimental: (§1) In order to identify whether the compounds have anticancer activity, the acute myeloid leukemia cell line U937, the acute lymphoblastic leukemia cell line Jurkat, the gastric cancer cell lines AGS, […], and the human lung cancer cell line A549 were used. The cell line was cultured using RPMI-1640 medium (U937, Jurkat, AGS, A549) or DMEM (Hs746T) medium containing 10% fetal bovine serum. Welgene products were used as the medium, and hyclone products were used for fetal bovine serum, and 1% of antibiotics for cell culture from Gibco were used as the culture medium.

[3] = test system: acute lymphoblastic leukemia cell line Jurkat; assay: Cancer cell proliferation inhibitory activity evaluation 2 (CCK-8), Jurkat; format: cell-based; conditions: Homo sapiens, 10 μM, 72 hours, CCK-8, read-out: Cancer cell proliferation inhibitory activity Jurkat
Experimental: as §1

[4] = test system: gastric cancer cell line AGS; assay: Cancer cell proliferation inhibitory activity evaluation 2 (CCK-8), AGS; format: cell-based; conditions: Homo sapiens; 10 μM, 72 hours, CCK-8; read-out: Cancer cell proliferation inhibitory activity AGS
Experimental: as §1

[5] = target: MLK1 (Homo sapiens (Human), UniProt P80192); assay: Evaluation of inhibitory activity of enzyme units, MLK1 ([γ-33P]-ATP filter assay); format: biochemical
MLK1, sequence (P80192 whole entry, looked up): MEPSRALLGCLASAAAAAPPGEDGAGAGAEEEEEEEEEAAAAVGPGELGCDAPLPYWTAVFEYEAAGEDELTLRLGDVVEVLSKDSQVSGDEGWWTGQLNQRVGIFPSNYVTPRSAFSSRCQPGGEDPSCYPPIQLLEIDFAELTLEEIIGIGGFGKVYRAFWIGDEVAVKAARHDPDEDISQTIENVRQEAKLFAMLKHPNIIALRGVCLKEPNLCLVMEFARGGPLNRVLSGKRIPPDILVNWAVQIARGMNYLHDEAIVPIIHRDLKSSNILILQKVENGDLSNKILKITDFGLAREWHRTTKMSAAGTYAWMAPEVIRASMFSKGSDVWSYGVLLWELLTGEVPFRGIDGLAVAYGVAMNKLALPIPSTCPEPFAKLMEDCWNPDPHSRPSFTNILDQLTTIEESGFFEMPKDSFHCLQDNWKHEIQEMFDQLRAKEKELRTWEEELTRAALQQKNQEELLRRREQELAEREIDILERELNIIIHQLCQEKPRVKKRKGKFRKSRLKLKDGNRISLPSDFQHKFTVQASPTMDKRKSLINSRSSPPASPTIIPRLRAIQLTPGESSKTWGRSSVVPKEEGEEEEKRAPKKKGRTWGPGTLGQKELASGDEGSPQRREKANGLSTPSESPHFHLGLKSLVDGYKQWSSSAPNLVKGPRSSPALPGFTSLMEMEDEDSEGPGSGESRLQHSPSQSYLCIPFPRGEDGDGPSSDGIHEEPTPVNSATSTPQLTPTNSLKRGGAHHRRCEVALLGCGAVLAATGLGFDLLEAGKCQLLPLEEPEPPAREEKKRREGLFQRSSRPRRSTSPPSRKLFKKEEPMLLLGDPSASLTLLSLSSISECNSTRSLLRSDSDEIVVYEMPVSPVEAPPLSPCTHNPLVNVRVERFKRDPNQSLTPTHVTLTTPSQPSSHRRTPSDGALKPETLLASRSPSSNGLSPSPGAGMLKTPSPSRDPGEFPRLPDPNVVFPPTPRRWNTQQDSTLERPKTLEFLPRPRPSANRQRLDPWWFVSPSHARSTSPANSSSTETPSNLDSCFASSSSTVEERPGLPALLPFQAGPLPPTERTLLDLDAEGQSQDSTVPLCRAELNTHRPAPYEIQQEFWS

MLK3, sequence (Q16584 whole entry, looked up): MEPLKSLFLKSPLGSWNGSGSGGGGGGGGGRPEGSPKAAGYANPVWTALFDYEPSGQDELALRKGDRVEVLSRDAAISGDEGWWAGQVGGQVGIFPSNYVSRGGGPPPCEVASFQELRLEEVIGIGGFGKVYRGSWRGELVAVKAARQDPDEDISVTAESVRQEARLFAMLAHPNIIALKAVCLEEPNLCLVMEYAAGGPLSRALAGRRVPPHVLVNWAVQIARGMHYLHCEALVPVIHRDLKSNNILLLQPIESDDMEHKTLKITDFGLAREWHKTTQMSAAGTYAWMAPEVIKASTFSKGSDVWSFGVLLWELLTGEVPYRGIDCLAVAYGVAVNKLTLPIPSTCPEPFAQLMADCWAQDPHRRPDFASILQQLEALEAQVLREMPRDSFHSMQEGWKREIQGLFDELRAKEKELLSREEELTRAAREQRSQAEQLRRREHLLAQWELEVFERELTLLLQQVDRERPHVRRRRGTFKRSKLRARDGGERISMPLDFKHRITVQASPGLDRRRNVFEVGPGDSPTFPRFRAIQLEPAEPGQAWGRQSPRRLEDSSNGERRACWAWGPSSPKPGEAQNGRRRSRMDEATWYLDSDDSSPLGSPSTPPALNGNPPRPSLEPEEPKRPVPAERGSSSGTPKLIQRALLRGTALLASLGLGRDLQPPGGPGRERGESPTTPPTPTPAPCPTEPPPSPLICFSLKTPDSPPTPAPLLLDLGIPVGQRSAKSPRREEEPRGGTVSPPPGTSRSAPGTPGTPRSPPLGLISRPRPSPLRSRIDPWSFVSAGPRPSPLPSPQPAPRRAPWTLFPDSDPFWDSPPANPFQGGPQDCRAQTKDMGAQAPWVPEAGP

SMILES	IC50 [1] [nM]	inhibition at 10 µM [2] [%]	inhibition at 10 µM [3] [%]	inhibition at 10 µM [4] [%]	IC50 [5] [nM]
CCS(=O)(=O)N1CC[C@H](Nc2c(Br)cnc3nc(-c4cc(C)n(-c5cccc(NC(=O)CN6CCOCC6)c5C)c4C)[nH]c23)C1 [Example 85, N-(3-(3-(6-bromo-7-(((S)-1-(ethylsulfonyl)pyrrolidine-3-yl)amino)-1H-imidazo[4,5-b]pyridine-2-yl)-2,5-dimethyl-1H-pyrrol-1-yl)-2-methylphenyl)-2-morpholinoacetamide]	11				
CCS(=O)(=O)N1CC[C@H](Nc2c(Br)cnc3nc(-c4cc(C)n(-c5cc(C(=O)N6CCN(C)CC6)ccc5C)c4C)[nH]c23)C1 [Example 92, (3-(3-(6-bromo-7-(((S)-1-(ethylsulfonyl)pyrrolidine-3-yl)amino)-1H-imidazo[4,5-b]pyridine-2-yl)-2,5-dimethyl-1H-pyrrol-1-yl)-4-methylphenyl) (4-methylpiperazine-1-yl) methanone]	26				
Cc1cc(-c2nc3c(Nc4cccc(S(N)(=O)=O)c4)c(Br)cnc3[nH]2)c(C)n1-c1cccc(S(=O)(=O)N2CCOCC2)c1 [Example 30, 3-((6-bromo-2-(2,5-dimethyl-1-(3-(morpholinosulfonyl)phenyl)-1H-pyrrol-3-yl)-3H-imidazo[4,5-b]pyridine-7-yl)amino)benzenesulfonamide]		< 10	10 to 50	10 to 50	
CCS(=O)(=O)N1CC[C@H](Nc2c(Br)cnc3[nH]c(-c4cc(C)n(-c5ccc(S(=O)(=O)N6CCOCC6)cc5)c4C)nc23)C1 [Example 10, (S)-6-bromo-2-(2,5-dimethyl-1-(4-(morpholinosulfonyl)phenyl)-1H-pyrrol-3-yl)-N-(1-(ethylsulfonyl)pyrrolidine-3-yl)-3H-imidazo[4,5-b]pyridine-7-amine]	7	10 to 50	> 50	10 to 50	
CCS(=O)(=O)N1CC[C@H](Nc2c(Br)cnc3[nH]c(-c4cc(C)n(-c5ccc6c(c5)OCO6)c4C)nc23)C1 [Example 49, (S)-2-(1-(benzo[d][1,3]dioxole-5-yl)-2,5-dimethyl-1H-pyrrol-3-yl)-6-bromo-N-(1-(ethylsulfonyl)pyrrolidine-3-yl)-3H-imidazo[4,5-b]pyridine-7-amine]	15				50
Cc1cc(-c2nc3c(Nc4cccc(S(N)(=O)=O)c4)c(Br)cnc3[nH]2)c(C)n1-c1ccc2c(c1)OCO2 [Example 41, 3-((2-(1-(benzo[d][1,3]dioxole-5-yl)-2,5-dimethyl-1H-pyrrol-3-yl)-6-bromo-3H-imidazo[4,5-b]pyridine-7-yl)amino)benzenesulfonamide]	70	10 to 50	10 to 50	10 to 50	
CCS(=O)(=O)N1CC[C@H](Nc2c(Br)cnc3[nH]c(-c4cc(C)n(-c5ccc(C(=O)NCCN(C)C)cc5)c4C)nc23)C1 [Example 62, (S)-4-(3-(6-bromo-7-((1-(ethylsulfonyl)pyrrolidine-3-yl)amino)-3H-imidazo[4,5-b]pyridine-2-yl)-2,5-dimethyl-1H-pyrrol-1-yl)-N-(2-(dimethylamino)ethyl)benzamide]	17				
CCS(=O)(=O)N1CC[C@H](Nc2ccnc3[nH]c(-c4cc(C)n(-c5cc(NS(C)(=O)=O)ccc5C)c4C)nc23)C1 [Example 50, N-(3-(3-(7-(((S)-1-(ethylsulfonyl)pyrrolidine-3-yl)amino)-3H-imidazo[4,5-b]pyridine-2-yl)-2,5-dimethyl-1H-pyrrol-1-yl)-4-methylphenyl) methanesulfonamide]	> 30000				> 30000
CCS(=O)(=O)N1CC[C@H](Nc2c(Br)cnc3nc(-c4cc(C)n(-c5cccc(C(=O)NCCN(C)C)c5C)c4C)[nH]c23)C1 [Example 82, 3-(3-(6-bromo-7-(((S)-1-(ethylsulfonyl)pyrrolidine-3-yl)amino)-1H-imidazo[4,5-b]pyridine-2-yl)-2,5-dimethyl-1H-pyrrol-1-yl)-N-(2-(dimethylamino)ethyl)-2-methylbenzamide]	14				
Cc1cc(-c2nc3c(Nc4cccc(S(N)(=O)=O)c4)c(Br)cnc3[nH]2)c(C)n1-c1ccc(S(=O)(=O)N2CCOCC2)cc1 [Example 29, 3-((6-bromo-2-(2,5-dimethyl-1-(4-(morpholinosulfonyl)phenyl)-1H-pyrrol-3-yl)-3H-imidazo[4,5-b]pyridine-7-yl)amino)benzenesulfonamide]	25	< 10	10 to 50	10 to 50	
CCS(=O)(=O)N1CC[C@H](Nc2c(Br)cnc3nc(-c4cc(C)n(-c5cccc(NC(=O)CN(C)C)c5C)c4C)[nH]c23)C1 [Example 84, N-(3-(3-(6-bromo-7-(((S)-1-(ethylsulfonyl)pyrolidine-3-yl)amino)-1H-imidazo[4,5-b]pyridine-2-yl)-2,5-dimethyl-1H-pyrrol-1-yl)-2-methylphenyl)-2-(dimethylamino) acetamide]	8				
COCCOc1cccc(-n2c(C)cc(-c3nc4ncc(Br)c(Nc5cccc(S(N)(=O)=O)c5)c4[nH]3)c2C)c1 [Example 42, 3-((6-bromo-2-(1-(3-(2-methoxyethoxy)phenyl)-2,5-dimethyl-1H-pyrrol-3-yl)-1H-imidazo[4,5-b]pyridine-7-yl)amino)benzenesulfonamide]	83	10 to 50	> 50	> 50	
COCCOc1ccc(Nc2c(Br)cnc3[nH]c(-c4cc(C)n(-c5cccc(S(N)(=O)=O)c5)c4C)nc23)cc1 [Example 46, 3-(3-(6-bromo-7-((4-(2-methoxyethoxy)phenyl)amino)-3H-imidazo[4,5-b]pyridine-2-yl)-2,5-dimethyl-1H-pyrrol-1-yl)benzenesulfonamide]		10 to 50	> 50	10 to 50	
Cc1cc(NS(C)(=O)=O)ccc1-n1c(C)cc(-c2nc3c(Nc4cccc(S(N)(=O)=O)c4)c(Br)cnc3[nH]2)c1C [Example 32, 3-((6-bromo-2-(2,5-dimethyl-1-(2-methyl-4-(methylsulfonamido)phenyl)-1H-pyrrol-3-yl)-3H-imidazo[4,5-b]pyridine-7-yl)amino)benzenesulfonamide]	32	10 to 50	10 to 50	10 to 50	
CCS(=O)(=O)N1CC[C@H](Nc2c(Br)cnc3[nH]c(-c4cc(C)n(-c5ccc(C(=O)N6CCN(C)CC6)cc5C)c4C)nc23)C1 [Example 97, (4-(3-(6-bromo-7-(((S)-1-(ethylsulfonyl)pyrrolidine-3-yl)amino)-3H-imidazo[4,5-b]pyridine-2-yl)-2,5-dimethyl-1H-pyrrol-1-yl)-3-methylphenyl) (4-methylpiperazine-1-yl) methanone]	20				
CCS(=O)(=O)N1CC[C@H](Nc2c(Br)cnc3nc(-c4cc(C)n(-c5cccc(NC(=O)CCN(C)C)c5C)c4C)[nH]c23)C1 [Example 86, N-(3-(3-(6-bromo-7-(((S)-1-(ethylsulfonyl)pyrrolidine-3-yl)amino)-1H-imidazo[4,5-b]pyridine-2-yl)-2,5-dimethyl-1H-pyrrol-1-yl)-2-methylphenyl)-3-(dimethylamino) propanamide]	7				15
Cc1c(NS(C)(=O)=O)cccc1-n1c(C)cc(-c2nc3c(Nc4cccc(S(N)(=O)=O)c4)c(Br)cnc3[nH]2)c1C [Example 34, 3-((6-bromo-2-(2,5-dimethyl-1-(2-methyl-3-(methylsulfonamido)phenyl)-1H-pyrrol-3-yl)-3H-imidazo[4,5-b]pyridine-7-yl)amino)benzenesulfonamide]	41	10 to 50	10 to 50	10 to 50	
Cc1cc(-c2nc3c(Nc4cccc(S(N)(=O)=O)c4)c(Br)cnc3[nH]2)c(C)n1-c1cccc(C(=O)N2CCOCC2)c1 [Example 28, 3-((6-bromo-2-(2,5-dimethyl-1-(3-(morpholine-4-carbonyl)phenyl)-1H-pyrrol-3-yl)-3H-imidazo[4,5-b]pyridine-7-yl)amino)benzenesulfonamide]	57	< 10	10 to 50	10 to 50	
CCS(=O)(=O)N1CC[C@H](Nc2c(Br)cnc3[nH]c(-c4cc(C)n(-c5ccc(C(=O)N(C)CCN(C)C)cc5)c4C)nc23)C1 [Example 63, (S)-4-(3-(6-bromo-7-((1-(ethylsulfonyl)pyrrolidine-3-yl)amino)-3H-imidazo[4,5-b]pyridine-2-yl)-2,5-dimethyl-1H-pyrrol-1-yl)-N-(2-(dimethylamino)ethyl)-N-methylbenzamide]	14				
Cc1cc(-c2nc3ncc(Br)c(Nc4cccc(S(N)(=O)=O)c4)c3[nH]2)c(C)n1-c1ccccc1 [Example 43, 3-((6-bromo-2-(2,5-dimethyl-1-phenyl-1H-pyrrol-3-yl)-1H-imidazo[4,5-b]pyridine-7-yl)amino)benzenesulfonamide]	85	10 to 50	> 50	10 to 50	
